Reference: patent US8729053B2, “Nuclear factor kappa B pathway inhibitor composition and use of same” (The United States of America, as represented by the …, priority 2008, dated 2014)

What was measured:
AP-1 = AP-1 luciferase reporter assay in HEK293 cells; format: cell-based; conditions: HEK293, TPA 10 ng/ml 18 hours
Procedure: (§1) All expression plasmids were transiently transfected into HEK293 cells in a 96-well plate (0.1 μg/well) by using Effectene transfection reagent (Qiagen, Valencia, Calif.) according to the manufacturer's manual. HEK293 cells were maintained in Dulbecco's modified Eagle medium (Sigma, St. Louis, Mo.) supplemented with 10% fetal bovine serum (Atlanta Biologicals, Lawrenceville, Ga.) and incubated at 37° C. in a 5% CO2 incubator. After 24 hrs incubation, the medium was changed to DMEM with 0.2% FBS, and the transfectants were exposed to various concentrations of compound I and TPA (10 ng/ml). Cells were lysed with passive lysis buffer and the luciferase assay was performed using the Firefly-Luciferase reporter assay system (Promega, Madison, Wis.) and MLX Luminometer (Dynex Technology, Chantilly, Va.).
Three different luciferase reporter genes, AP-1 reporter containing four times TRE consensus originated from GCN4 and SRE reporter purchased from Stratagene (La Jolla, Calif.) respectively are as described previously (Suzukawa et al., Environ. Health Perspect., 2002, 110, 865-70). NFκB reporter is driven by five times NFκB responsive element inserted into Cis-reporter backbone (Stratagene, La Jolla, Calif.). Others include mouse COX-2 promoter region from −203 to +70 relative to the transcription site inserted into pTIS10L vector (Kim and Fischer, J. Biol. Chem., 1998, 273, 27686-94), human uPAR promoter region from −141 to +47 relative to transcription start site in pGL3 vector (Wang et al., Eur. J. Biochem., 2000, 267, 3248-54), and human VEGF promoter sequence from −2274 to +379 inserted into the pGL2 vector (Ding et al., J. Biol. Chem., 2006, 281, 9093-100). […]

NFκB = NFκB luciferase reporter assay in HEK293 cells; format: cell-based; conditions: at 1 to 8 μM, TPA 10 ng/ml 18 hours
Procedure: as §1
Three different luciferase reporter genes, AP-1 reporter containing four times TRE consensus originated from GCN4 and SRE reporter purchased from Stratagene (La Jolla, Calif.) respectively are as described previously (Suzukawa et al., Environ. Health Perspect., 2002, 110, 865-70). NFκB reporter is driven by five times NFκB responsive element inserted into Cis-reporter backbone (Stratagene, La Jolla, Calif.). Others include mouse COX-2 promoter region from −203 to +70 relative to the transcription site inserted into pTIS10L vector (Kim and Fischer, J. Biol. Chem., 1998, 273, 27686-94), human uPAR promoter region from −141 to +47 relative to transcription start site in pGL3 vector (Wang et al., Eur. J. Biochem., 2000, 267, 3248-54), and human VEGF promoter sequence from −2274 to +379 inserted into the pGL2 vector (Ding et al., J. Biol. Chem., 2006, 281, 9093-100).
To evaluate whether the compound I biological activity can imitate TAM67 specificity, three different transcriptional promoter reporters were used, AP-1, NFκB, and SRE (Serum response element) in luciferase reporter assays (FIG. 1A: The transfected cells were pre-treated with varied concentrations of compound I or DMSO for 1 hour before 18 hours stimulation by TPA (10 ng/ml) or DMSO as vehicle. An asterisk (*) indicates a separate experiment with NFκB dependent luciferase only. Assays were performed with two independent experiments each in quadruplicate.). All three activities were induced by TPA but only induction of AP-I and NFκB were inhibited by TAM67. The SRE reporter was used as a specificity control and indicator of cell proliferation. TPA-induced SRE activity was not repressed by TAM67 when coexpressed with the SRE-Luc reporter in HEK293 cells. The same concentration (10 ng/ml, 16.2 nM) and incubation time (18 hrs) were used for TPA induction as previously used for the high throughput screen (HTS) (Ruocco et al., J. Biomol. Screen., 2007, 12, 133-9) along with 1 h pretreatment of compound I. The screening results had tested concentrations as high as 40 μM compound I with cell numbers showing 95.5+/−6.2% of DMSO control (ave+/− sd, n=3) by the XTT assay in HEK293T cells.

IKKβ = target: T1, IKKβ (Homo sapiens, UniProt O14920); test: K-LISA IKKβ Inhibitor Screening Kit in vitro assay; format: biochemical; conditions: 0.1 to 100 μM, incubated with ATP
T1 construct: purchased Calbiochem
T1 sequence (O14920 1-756): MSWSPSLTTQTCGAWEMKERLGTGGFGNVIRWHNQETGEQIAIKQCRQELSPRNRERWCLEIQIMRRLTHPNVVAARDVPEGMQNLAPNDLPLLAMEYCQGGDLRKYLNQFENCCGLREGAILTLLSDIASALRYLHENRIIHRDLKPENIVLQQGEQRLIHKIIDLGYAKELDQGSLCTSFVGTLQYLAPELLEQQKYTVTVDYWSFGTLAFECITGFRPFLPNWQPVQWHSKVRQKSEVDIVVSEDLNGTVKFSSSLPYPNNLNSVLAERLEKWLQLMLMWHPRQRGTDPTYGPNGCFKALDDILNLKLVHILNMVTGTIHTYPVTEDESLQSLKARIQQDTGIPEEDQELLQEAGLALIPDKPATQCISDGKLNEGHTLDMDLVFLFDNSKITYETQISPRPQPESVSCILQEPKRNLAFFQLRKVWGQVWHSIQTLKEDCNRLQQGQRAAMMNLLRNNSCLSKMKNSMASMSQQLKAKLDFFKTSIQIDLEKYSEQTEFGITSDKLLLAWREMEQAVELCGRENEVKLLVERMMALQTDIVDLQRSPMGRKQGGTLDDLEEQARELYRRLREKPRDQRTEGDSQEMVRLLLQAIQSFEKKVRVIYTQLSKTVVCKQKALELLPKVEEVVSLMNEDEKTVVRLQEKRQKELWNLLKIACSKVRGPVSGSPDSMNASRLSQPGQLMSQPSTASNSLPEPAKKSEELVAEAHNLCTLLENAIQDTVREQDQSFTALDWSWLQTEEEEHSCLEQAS
Procedure: In an attempt to determine whether compound I interferes with ATP binding to the catalytic site, the activity of compound I was measured with fully activated, phosphorylated IKKα or IKKβ. […] However, whether this compound interacts outside of the ATP binding pocket of IKK as an ATP non-competitive inhibitor similar to BMS-345541 is unknown. […] Luciferase activities with TPA induction alone were set at 100% and the relative activities with TPA in the presence of compounds are shown.

[1] = system: SRE (Serum response element); test: SRE luciferase reporter assay in HEK293 cells; format: cell-based; conditions: HEK293, TPA 10 ng/ml 18 hours
Procedure: as §1
Three different luciferase reporter genes, AP-1 reporter containing four times TRE consensus originated from GCN4 and SRE reporter purchased from Stratagene (La Jolla, Calif.) respectively are as described previously (Suzukawa et al., Environ. Health Perspect., 2002, 110, 865-70). NFκB reporter is driven by five times NFκB responsive element inserted into Cis-reporter backbone (Stratagene, La Jolla, Calif.). […]

Row | Structure (SMILES) | Inhibition of TPA-induced AP-1 luciferase activity (AP-1) | Inhibition of NFκB-Luciferase (NFκB) | Inhibition of phosphorylation of IκBα peptide substrate catalyzed by IKKβ (IKKβ) | TPA-induced SRE luciferase activity [1]
1 | Cc1ccc2nc(NCCN)c3ncc(C)n3c2c1 [BMS-345541, reference compound] | without inhibition | dose-dependent inhibition | no inhibition | –
2 | O=C(O)c1cc(/N=N/c2ccc(S(=O)(=O)Nc3ccccn3)cc2)ccc1O [sulfasalazine, reference compound] | – | – | – | no sparing
